From article PMC10353061 (ACS Pharmacology & Translational Science, 2023) come the findings set out here.

In one assay the test system is Myc. The experiment in a line: Myc and β-catenin expression (western blot, qPCR) in LiCl-treated HCT116 cells. The class given is cell-based, human. The conditions noted are these: HCT116, LiCl 50 mM, 24 h. As for the experimental part: To this end, HCT116 cells were treated for 24 h with 50 mM LiCl and increasing concentrations (10–50–100 μM) of the two compounds.
Figure 7 Top panels. […] Vinculin was used as a loading control. […] Bottom panels. c-Myc mRNA levels were measured by qPCR and normalized to the expression of β-actin mRNA and expressed as fold change relative to the control sample. Results represent the mean ± SD of three independent experiments, each performed in triplicate. **p < 0.01, ***p < 0.001 as determined by ANOVA.
Briefly, total proteins from the cells in each group were subjected to 12% denaturing sodium dodecyl sulfate-polyacrylamide gel electrophoresis (SDS-PAGE). The proteins were then transferred onto a poly(vinylidene fluoride) (PVDF) membrane (Millipore). […] After the membrane was fully washed, it was incubated with secondary antibodies at 37 °C for 45 min goat anti-rabbit IgG H&L (HRP) (ab97051), Abcam, MA. The membrane was washed with Tris-buffered saline/Tween-20 (TBST) 4 times at room temperature for 14 min each time. Next, the samples were exposed and imaged (Sigma-Aldrich Chemical) using the enhanced chemiluminescence (ECL) method (Pierce Biotechnology).
(In general: Immunoblotting shows a protein as a band on a membrane.)

A further assay concerns HCC1806 cells. As to the kind of experiment: Cell proliferation by live-cell imaging (IncuCyte), HCC1806 TNBC cells. The conditions noted are these: 40 μM, 72 h. The class given is cell-based. As for the experimental part:
As TNBC is a highly heterogeneous subgroup, including breast cancers with different molecular and phenotypic traits,[37] effects of compounds 5–10 on cell proliferation were also tested in additional TNBC cell lines, i.e., HCC1806 and HCC1937. As inhibitors of HCC1806 TNBC cells, compounds 5–10 were evaluated in parallel with compounds 3, ICG-001, and iCRT3 (Figures 10 and S12–S19, Supporting Information); as inhibitors of the HCC1937 TNBC cells, 5–10 were compared with 3 and iCRT3 (Figures 10, S20, and S21). Effects on cell proliferation were evaluated as above for the MDA-MB-231 TNBC cells at the latest time point of observation of 72 h.
Figure 10 Inhibition of MDA-MB-231, HCC1806, and HCC1937 TNBC cell growth by compounds 5–10 and reference compounds 3, […], and iCRT3 at 40 μM. Cell growth inhibition was quantified using the IncuCyte cell-by-cell analysis software, by comparison with the growth of DMSO-treated cells at 72 h, set at 100% (mean ± SD, n = 3, one-way ANOVA, **p ≤ 0.01, ****p ≤ 0.0001).
Cell proliferation of breast cancer cell lines upon continuous treatment with select compounds was evaluated by the real-time quantitative live-cell imaging system. MDA-MB-231 (1500 cells/well), HCC1806 (2000 cells/well), and HCC1937 (3000 cells/well) were seeded in 96-well plates, treated with increasing doses of selected compounds and images (5 images/well) were acquired every 8 h for 3 days at 10× magnification in an IncuCyte SX5 live-content imaging system (Essen Bioscience) at 37 °C with 5% CO2. Images were analyzed using IncuCyte cell-by-cell analysis software to detect and quantify live cells (phase-contrast). The number of cells at each time point was quantified using IncuCyte cell-by-cell analysis software, and cell growth was evaluated as the normalized ratio between counted cells at each time point normalized to those counted at time 0. Graph drawing and statistical analyses were performed in GraphPad Prism according to the statistical tests described in the figure legends.

Regarding `O=S(=O)(Nc1ccc(-c2ccccn2)cc1)c1ccc(Br)cc1` [Compound 9, 4-Bromo-N-(4-(pyridin-2-yl)phenyl)benzenesulfonamide], in the assay on Myc (10 μM), the “inhibition of Myc expression” value is on record as “about 2.5 fold”. Further, in the assay with Myc (10–50–100 μM), the “protein and mRNA levels of Myc” value is recorded as “significant dose-dependent inhibition”; the β-catenin protein levels entry is recorded as “reduced only at the highest dose”. For the same molecule, the “effect on HCC1806 cell growth” value in the assay with HCC1806 cells is on record as “less effective”.
